The source made the active and inactive calls. The rule behind the calls is not given here.
How the values were obtained:
Calf thymus DNA [1] = assay: Binding affinity to calf thymus duplex DNA assessed as red shift in soret peak at 50 uM in pH 7 phosphate buffer by UV-vis spectrophotometric analysis; assay type: nucleic-acid assay; details: Bos taurus
Calf thymus DNA [2] = assay: Binding affinity to calf thymus duplex DNA assessed as induction of hyperchromic shift at 257 nanometer at 50 uM in pH 7 phosphate buffer by UV-vis spectrophotometric analysis; assay type: nucleic-acid assay; details: Bos taurus
Calf thymus DNA [3] = assay: Binding affinity to calf thymus duplex DNA assessed as induction of hyperchromic shift at 257 nanometer at 50 uM in pH 8.9 phosphate buffer by UV-vis spectrophotometric analysis; assay type: nucleic-acid assay; details: Bos taurus
Calf thymus DNA [4] = assay: Binding affinity to calf thymus duplex DNA assessed as induction of hyperchromic shift at 257 nanometer at 50 uM in pH 5.4 phosphate buffer by UV-vis spectrophotometric analysis; assay type: nucleic-acid assay; details: Bos taurus
Calf thymus DNA [5] = assay: Binding affinity to calf thymus duplex DNA assessed as induction of red shift in soret peak at 50 uM in pH 8.9 phosphate buffer by UV-vis spectrophotometric analysis; assay type: nucleic-acid assay; details: Bos taurus
Calf thymus DNA [6] = assay: Binding affinity to calf thymus duplex DNA assessed as induction of red shift in soret peak at 50 uM in pH 5.4 phosphate buffer by UV-vis spectrophotometric analysis; assay type: nucleic-acid assay; details: Bos taurus
Calf thymus DNA [7] = assay: Binding affinity to calf thymus duplex DNA assessed as change in melting temperature at 50 uM in pH 7 phosphate buffer by UV-vis spectrophotometric analysis; assay type: nucleic-acid assay; details: Bos taurus
Bos taurus [8] = species on record: Bos taurus; assay: Binding affinity to calf thymus GC-rich duplex DNA assessed as induction of hyperchromicity at 25 to 200 uM in pH 7 phosphate buffer by circular dichroism method
Bos taurus [9] = species on record: Bos taurus; assay: Binding affinity to calf thymus AT-rich duplex DNA assessed as induction of hyperchromicity at 25 to 200 uM in pH 7 phosphate buffer by circular dichroism method
Calf thymus DNA [10] = assay: Binding affinity to calf thymus duplex DNA assessed as induction of red shift at 280 nanometer at 25 to 200 uM in pH 7 phosphate buffer by circular dichroism method; assay type: nucleic-acid assay; details: Bos taurus
Calf thymus DNA [11] = assay: Binding affinity to calf thymus duplex DNA assessed as induction of hyperchromicity at 280 nanometer at 25 to 200 uM in pH 7 phosphate buffer by circular dichroism method; assay type: nucleic-acid assay; details: Bos taurus
Calf thymus DNA [12] = assay: Binding affinity to calf thymus duplex DNA assessed as induction of ellipticity at 25 to 200 uM in pH 5.4 phosphate buffer by circular dichroism method; assay type: nucleic-acid assay; details: Bos taurus
Bos taurus [13] = species on record: Bos taurus; assay: Binding affinity to calf thymus GC-rich duplex DNA assessed as induction of ellipticity at 25 to 200 uM in pH 7 phosphate buffer by circular dichroism method
Bos taurus [14] = species on record: Bos taurus; assay: Binding affinity to calf thymus AT-rich duplex DNA assessed as induction of ellipticity at 25 to 200 uM in pH 7 phosphate buffer by circular dichroism method
Calf thymus DNA [15] = assay: Binding affinity to calf thymus duplex DNA assessed as induction of ellipticity at 25 to 200 uM in pH 7 phosphate buffer in presence of 0.1 M NaCl by circular dichroism method; assay type: nucleic-acid assay; details: Bos taurus
Calf thymus DNA [16] = assay: Binding affinity to calf thymus duplex DNA assessed as induction of ellipticity at 25 to 200 uM in pH 8.9 phosphate buffer by circular dichroism method; assay type: nucleic-acid assay; details: Bos taurus
Calf thymus DNA [17] = assay: Binding affinity to calf thymus duplex DNA assessed as induction of ellipticity at 349 nanometer at 25 to 200 uM in pH 7 phosphate buffer by circular dichroism method; assay type: nucleic-acid assay; details: Bos taurus
Calf thymus DNA [18] = assay: Binding affinity to calf thymus duplex DNA assessed as melting temperature at 1 mM by differential scanning calorimetry (reference value: 51 degC); assay type: nucleic-acid assay; details: Bos taurus
Calf thymus DNA [19] = assay: Binding affinity to calf thymus duplex DNA assessed as melting temperature at 5 mM by differential scanning calorimetry (reference value: 51 degC); assay type: nucleic-acid assay; details: Bos taurus
Calf thymus DNA [20] = assay: Binding affinity to calf thymus duplex DNA assessed as increase in melting temperature by differential scanning calorimetry; assay type: nucleic-acid assay; details: Bos taurus
Calf thymus DNA [21] = assay: Binding affinity to calf thymus duplex DNA assessed as induction of hyperchromic shift at 257 nanometer at 75 uM in pH 7 phosphate buffer by UV-vis spectrophotometric analysis; assay type: nucleic-acid assay; details: Bos taurus
Calf thymus DNA [22] = assay: Binding affinity to calf thymus duplex DNA assessed as induction of red shift in soret peak at 75 uM in pH 7 phosphate buffer by UV-vis spectrophotometric analysis; assay type: nucleic-acid assay; details: Bos taurus
Calf thymus DNA [23] = assay: Binding affinity to calf thymus duplex DNA assessed as induction of ellipticity at 350 nanometer at 25 to 200 uM in pH 7 phosphate buffer by circular dichroism method; assay type: nucleic-acid assay; details: Bos taurus
Calf thymus DNA [24] = assay: Binding affinity to calf thymus duplex DNA assessed as induction of hyperchromicity at 25 to 200 uM in pH 7 phosphate buffer by circular dichroism method; assay type: nucleic-acid assay; details: Bos taurus
Calf thymus DNA [25] = assay: Binding affinity to calf thymus duplex DNA assessed as melting temperature at 0.5 mM by differential scanning calorimetry (reference value: 51 degC); assay type: nucleic-acid assay; details: Bos taurus
Calf thymus DNA [26] = assay: Binding affinity to calf thymus duplex DNA assessed as change in melting temperature at 2.5 uM in pH 7 phosphate buffer by UV-vis spectrophotometric analysis; assay type: nucleic-acid assay; details: Bos taurus
Calf thymus DNA [27] = assay: Binding affinity to calf thymus duplex DNA assessed as induction of ellipticity at 2.5 to 63 uM in pH 7 phosphate buffer by circular dichroism method; assay type: nucleic-acid assay; details: Bos taurus

Structure (SMILES): c1ccc2c(-c3nccc4c3[nH]c3ccccc34)c[nH]c2c1
- Activity (Calf thymus DNA [1]): 20 nm
- Activity (Calf thymus DNA [2]): Active
- Activity (Calf thymus DNA [3]): Active
- Activity (Calf thymus DNA [4]): Active
- Activity (Calf thymus DNA [5]): Active
- Activity (Calf thymus DNA [6]): Active
- ΔTm (Calf thymus DNA [7]): 2.3 °C
- Activity (Bos taurus [8]): inactive
- Activity (Bos taurus [9]): inactive
- Activity (Calf thymus DNA [10]): Active
- Activity (Calf thymus DNA [11]): Active
- Activity (Calf thymus DNA [12]): Active
- Activity (Bos taurus [13]): inactive
- Activity (Bos taurus [14]): inactive
- Activity (Calf thymus DNA [15]): Active
- Activity (Calf thymus DNA [16]): inactive
- Activity (Calf thymus DNA [17]): Active
- Tm (Calf thymus DNA [18]): 56 to 67 °C
- Tm (Calf thymus DNA [19]): 67 °C
- Activity (Calf thymus DNA [20]): Dose-dependent effect

Structure (SMILES): c1ccc2c(c1)[nH]c1cnccc12
- Activity (Calf thymus DNA [21]): Active
- Activity (Calf thymus DNA [22]): Active
- Activity (Calf thymus DNA [23]): inactive

Structure (SMILES): C[n+]1ccc2c([nH]c3ccccc32)c1-c1c[nH]c2ccccc12
- Activity (Calf thymus DNA [23]): inactive
- Activity (Calf thymus DNA [24]): inactive

Structure (SMILES): Cc1nccc2c1[nH]c1ccccc12
- Activity (Calf thymus DNA [1]): Active
- Activity (Calf thymus DNA [2]): Active
- ΔTm (Calf thymus DNA [7]): 4 °C
- Activity (Calf thymus DNA [23]): inactive
- Tm (Calf thymus DNA [25]): 65 °C

Structure (SMILES): CC[n+]1c(-c2ccccc2)c2cc(N)ccc2c2ccc(N)cc21
- ΔTm (Calf thymus DNA [26]): 8.9 °C
- Activity (Calf thymus DNA [27]): Active
- Tm (Calf thymus DNA [25]): 75 °C

Source: ChEMBL document CHEMBL4431382, “DNA-binding studies of the natural β-carboline eudistomin U” (Bioorg Med Chem Lett, 2016)
